Test results: publication PMC9611727, “Optimization of a Novel Mandelamide-Derived Pyrrolopyrimidine Series of PERK Inhibitors” (Pharmaceutics, 2022)

Columns and labels:
Experiment in all cases: scanMAX kinase panel
Format in all cases: binding
Details in all cases: read-out: % Control; for remaining binding at 1 µM: 1000 nM
CDK8 = target: T1, CDK8 (Homo sapiens, UniProt P49336)
T1 construct: purchased DiscoverX scanMAX
Excerpt: (§1) Supplemental Table S2. scanMAXSM Kinome Assay Results. Complete tabulated data of all 468 kinases from the panel, including
(§2) 403 wild-type and 65 mutant isoforms. […] Cmpd 11 and Cmpd 24

FLT3(R834Q) = target: T2, FLT3(R834Q) (Homo sapiens, UniProt P36888, R834Q)
T2 construct: purchased DiscoverX scanMAX
T2 sequence (P36888 27-993 R834Q): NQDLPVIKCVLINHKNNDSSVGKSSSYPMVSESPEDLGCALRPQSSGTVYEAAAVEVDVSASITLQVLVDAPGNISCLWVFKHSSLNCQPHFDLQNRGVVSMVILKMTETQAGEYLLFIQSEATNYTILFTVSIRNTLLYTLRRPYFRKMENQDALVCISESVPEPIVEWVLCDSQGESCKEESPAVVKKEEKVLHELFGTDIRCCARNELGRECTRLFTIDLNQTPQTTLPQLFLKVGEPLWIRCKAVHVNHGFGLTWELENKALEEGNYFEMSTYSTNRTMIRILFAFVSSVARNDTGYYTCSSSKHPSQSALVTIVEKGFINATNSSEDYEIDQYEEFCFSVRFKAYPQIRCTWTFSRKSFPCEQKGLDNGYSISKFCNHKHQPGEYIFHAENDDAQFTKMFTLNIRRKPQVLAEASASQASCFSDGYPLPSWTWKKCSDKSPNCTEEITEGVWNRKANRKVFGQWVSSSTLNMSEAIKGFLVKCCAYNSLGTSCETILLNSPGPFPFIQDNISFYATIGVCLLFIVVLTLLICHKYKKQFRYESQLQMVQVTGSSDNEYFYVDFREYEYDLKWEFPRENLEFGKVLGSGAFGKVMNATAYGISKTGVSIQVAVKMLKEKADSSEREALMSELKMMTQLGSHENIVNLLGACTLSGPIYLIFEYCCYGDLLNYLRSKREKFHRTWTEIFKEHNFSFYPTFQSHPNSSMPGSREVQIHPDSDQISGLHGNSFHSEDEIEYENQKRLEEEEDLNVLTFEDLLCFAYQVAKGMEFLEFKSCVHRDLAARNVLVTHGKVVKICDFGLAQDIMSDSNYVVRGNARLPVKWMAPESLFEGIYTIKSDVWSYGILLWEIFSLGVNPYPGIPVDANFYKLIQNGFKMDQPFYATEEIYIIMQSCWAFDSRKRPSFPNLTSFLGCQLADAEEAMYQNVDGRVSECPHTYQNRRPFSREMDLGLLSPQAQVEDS
Excerpt: as §1, §2

AXL = target: T3, AXL (Homo sapiens, UniProt P30530)
T3 construct: purchased DiscoverX scanMAX
T3 sequence (P30530 26-894): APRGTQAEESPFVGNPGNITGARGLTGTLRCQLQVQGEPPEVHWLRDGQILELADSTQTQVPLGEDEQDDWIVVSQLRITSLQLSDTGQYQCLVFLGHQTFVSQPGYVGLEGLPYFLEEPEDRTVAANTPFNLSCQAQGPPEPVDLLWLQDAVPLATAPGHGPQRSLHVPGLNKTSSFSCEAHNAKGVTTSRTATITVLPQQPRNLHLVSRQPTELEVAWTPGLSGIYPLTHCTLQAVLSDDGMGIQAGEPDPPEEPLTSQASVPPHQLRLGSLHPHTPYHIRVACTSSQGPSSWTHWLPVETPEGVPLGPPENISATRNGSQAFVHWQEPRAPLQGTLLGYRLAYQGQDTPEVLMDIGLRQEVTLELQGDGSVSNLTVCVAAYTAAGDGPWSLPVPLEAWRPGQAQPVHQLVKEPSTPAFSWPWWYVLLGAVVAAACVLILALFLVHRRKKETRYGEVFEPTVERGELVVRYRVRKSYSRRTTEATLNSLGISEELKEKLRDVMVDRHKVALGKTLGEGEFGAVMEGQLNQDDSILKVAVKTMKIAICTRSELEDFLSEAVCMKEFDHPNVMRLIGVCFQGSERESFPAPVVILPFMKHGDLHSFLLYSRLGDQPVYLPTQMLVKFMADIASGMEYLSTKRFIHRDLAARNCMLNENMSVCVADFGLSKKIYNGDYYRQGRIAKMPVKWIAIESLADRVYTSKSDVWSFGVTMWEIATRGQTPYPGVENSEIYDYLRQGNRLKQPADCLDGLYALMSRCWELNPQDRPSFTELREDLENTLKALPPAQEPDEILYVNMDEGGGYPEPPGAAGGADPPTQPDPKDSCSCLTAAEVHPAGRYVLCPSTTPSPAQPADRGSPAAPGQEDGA
Excerpt: as §1, §2

MKNK2 = target: T4, MKNK2 (Homo sapiens, UniProt Q9HBH9)
T4 construct: purchased DiscoverX scanMAX
Excerpt: as §1, §2

PIK4CB = target: T5, PIK4CB (Homo sapiens, UniProt Q9UBF8)
T5 construct: purchased DiscoverX scanMAX
Excerpt: as §1, §2

TYK2(JH2domain-pseudok.) = target: T6, TYK2(JH2domain-pseudok.) (Homo sapiens, UniProt P29597)
T6 construct: TYK2(JH2domain-pseudok.); purchased DiscoverX (scanMAX panel)
Excerpt: as §1, §2

PRKR = target: T7, PRKR (Homo sapiens, UniProt P19525)
T7 construct: purchased DiscoverX scanMAX
Excerpt: as §1, §2

T5 sequence (Q9UBF8 whole entry): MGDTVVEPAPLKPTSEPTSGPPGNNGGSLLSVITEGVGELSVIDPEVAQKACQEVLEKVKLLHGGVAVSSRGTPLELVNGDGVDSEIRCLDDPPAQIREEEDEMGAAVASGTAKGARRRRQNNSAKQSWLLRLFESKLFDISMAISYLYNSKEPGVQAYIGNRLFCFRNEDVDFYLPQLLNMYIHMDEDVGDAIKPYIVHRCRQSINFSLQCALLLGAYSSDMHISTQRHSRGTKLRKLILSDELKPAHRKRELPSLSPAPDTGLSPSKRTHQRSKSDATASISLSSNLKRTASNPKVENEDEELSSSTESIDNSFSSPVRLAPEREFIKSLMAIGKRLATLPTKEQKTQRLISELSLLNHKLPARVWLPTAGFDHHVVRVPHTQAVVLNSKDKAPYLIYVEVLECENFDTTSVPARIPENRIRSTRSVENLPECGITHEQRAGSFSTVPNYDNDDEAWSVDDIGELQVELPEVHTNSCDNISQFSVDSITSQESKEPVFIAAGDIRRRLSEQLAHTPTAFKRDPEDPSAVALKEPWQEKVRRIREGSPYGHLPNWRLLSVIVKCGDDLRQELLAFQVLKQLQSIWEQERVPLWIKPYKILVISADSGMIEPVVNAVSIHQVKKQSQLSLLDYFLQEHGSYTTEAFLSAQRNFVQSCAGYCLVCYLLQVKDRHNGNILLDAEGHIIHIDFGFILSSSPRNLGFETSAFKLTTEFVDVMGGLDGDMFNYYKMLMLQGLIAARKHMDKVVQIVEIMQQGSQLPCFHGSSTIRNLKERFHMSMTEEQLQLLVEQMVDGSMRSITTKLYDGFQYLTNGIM
T1 sequence (P49336 whole entry): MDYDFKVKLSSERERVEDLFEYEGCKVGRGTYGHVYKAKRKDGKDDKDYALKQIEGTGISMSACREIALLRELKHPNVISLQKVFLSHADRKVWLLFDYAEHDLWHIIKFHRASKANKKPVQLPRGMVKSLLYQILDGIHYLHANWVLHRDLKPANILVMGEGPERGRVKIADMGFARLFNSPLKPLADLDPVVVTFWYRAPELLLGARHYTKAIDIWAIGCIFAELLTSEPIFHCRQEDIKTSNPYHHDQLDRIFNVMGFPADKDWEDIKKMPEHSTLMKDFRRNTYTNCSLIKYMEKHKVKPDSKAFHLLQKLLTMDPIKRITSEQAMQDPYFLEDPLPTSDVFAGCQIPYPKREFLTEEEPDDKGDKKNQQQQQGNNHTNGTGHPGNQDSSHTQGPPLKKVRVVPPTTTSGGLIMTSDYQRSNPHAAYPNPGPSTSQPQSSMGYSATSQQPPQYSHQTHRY
T6 sequence (P29597 589-875 limits assumed): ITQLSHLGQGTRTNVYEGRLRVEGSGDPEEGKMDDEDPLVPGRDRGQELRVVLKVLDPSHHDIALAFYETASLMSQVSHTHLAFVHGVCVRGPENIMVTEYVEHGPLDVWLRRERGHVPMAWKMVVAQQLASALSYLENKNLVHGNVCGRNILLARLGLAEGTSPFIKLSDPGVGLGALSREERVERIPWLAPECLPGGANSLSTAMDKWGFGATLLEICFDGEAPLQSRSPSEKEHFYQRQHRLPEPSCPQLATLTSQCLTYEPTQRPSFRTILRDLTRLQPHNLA
T4 sequence (Q9HBH9 whole entry): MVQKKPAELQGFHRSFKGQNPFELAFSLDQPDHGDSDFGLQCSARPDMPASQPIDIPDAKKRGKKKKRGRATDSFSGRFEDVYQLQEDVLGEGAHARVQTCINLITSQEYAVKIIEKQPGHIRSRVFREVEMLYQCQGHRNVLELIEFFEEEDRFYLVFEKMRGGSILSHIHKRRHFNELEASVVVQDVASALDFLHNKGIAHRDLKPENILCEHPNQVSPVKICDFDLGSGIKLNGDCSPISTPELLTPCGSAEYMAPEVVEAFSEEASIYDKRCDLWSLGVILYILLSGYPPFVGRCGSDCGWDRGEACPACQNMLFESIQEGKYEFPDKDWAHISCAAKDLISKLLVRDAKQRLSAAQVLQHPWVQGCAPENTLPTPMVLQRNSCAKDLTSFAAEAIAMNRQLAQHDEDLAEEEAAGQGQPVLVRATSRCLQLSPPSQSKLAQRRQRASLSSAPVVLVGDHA
T7 sequence (P19525 whole entry): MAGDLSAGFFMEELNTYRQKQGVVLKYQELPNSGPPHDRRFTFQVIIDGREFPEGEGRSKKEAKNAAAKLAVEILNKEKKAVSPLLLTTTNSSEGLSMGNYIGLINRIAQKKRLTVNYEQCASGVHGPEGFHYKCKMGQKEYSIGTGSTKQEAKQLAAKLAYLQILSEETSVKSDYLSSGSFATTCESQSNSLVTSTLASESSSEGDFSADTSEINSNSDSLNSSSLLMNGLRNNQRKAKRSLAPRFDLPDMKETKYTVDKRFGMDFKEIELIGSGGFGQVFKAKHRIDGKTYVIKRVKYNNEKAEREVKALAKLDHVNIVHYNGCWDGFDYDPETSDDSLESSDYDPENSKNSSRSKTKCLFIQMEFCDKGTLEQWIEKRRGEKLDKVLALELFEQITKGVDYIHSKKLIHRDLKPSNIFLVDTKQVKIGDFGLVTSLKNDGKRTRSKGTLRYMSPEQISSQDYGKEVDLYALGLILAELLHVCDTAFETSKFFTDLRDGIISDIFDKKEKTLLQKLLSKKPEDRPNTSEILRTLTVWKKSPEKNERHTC

| Compound | remaining binding at 1 µM (CDK8) | remaining binding at 1 µM (FLT3(R834Q)) | remaining binding at 1 µM (AXL) | remaining binding at 1 µM (MKNK2) | remaining binding at 1 µM (PIK4CB) | remaining binding at 1 µM (TYK2(JH2domain-pseudok.)) | remaining binding at 1 µM (PRKR) | remaining binding at 0.1 µM (CDK8; 100 nM) | remaining binding at 0.1 µM (FLT3(R834Q); 100 nM) | remaining binding at 0.1 µM (AXL; 100 nM) | remaining binding at 0.1 µM (MKNK2; 100 nM) | remaining binding at 0.1 µM (PIK4CB; 100 nM) | remaining binding at 0.1 µM (TYK2(JH2domain-pseudok.); 100 nM) | remaining binding at 0.1 µM (PRKR; 100 nM) |
| --- | --- | --- | --- | --- | --- | --- | --- | --- | --- | --- | --- | --- | --- | --- |
| Cc1nc(N)c2c(-c3ccc(NC(=O)[C@H](O)c4cccc(F)c4)cc3C)cn(C)c2n1 [Compound 24] | 98% | 98% | 100% | 58% | 28% | 79% | 42% |  |  |  |  |  |  |  |
| Cc1cc(NC(=O)[C@H](O)c2cccc(F)c2)ccc1-c1cn(C)c2ncnc(N)c12 [Compound 11, (R)-N-(4-(4-amino-7-methyl-7H-pyrrolo[2,3-d]pyrimidin-5-yl)-3-methylphenyl)-2-(3-fluorophenyl)-2-hydroxy acetamide] | 2.5% | 59% | 56% | 1.2% | 84% | 80% | 42% |  |  |  |  |  |  |  |
| Cc1nc(N)c2c(-c3ccc(NC(=O)[C@H](O)c4cccc(C(F)(F)F)c4)cc3C)cn(C)c2n1 [Compound 26] | 57% | 7.5% | 0.7% | 3.9% | 4.3% | 30% | 96% | 100% | 84% | 99% | 88% | 93% | 98% | 91% |
